# Experimental data as given in patent US10799456B2, “Multiple drug lipid nanoparticle composition and related methods for extended drug levels in blood and lymph tissue” (priority 2015, dated 2020).
# Tests used:
# [1] = Drug incorporation/encapsulation (association) efficiency of multi-drug LNPs by dialysis; type: physicochemical; conditions: for Degree of incorporation (% total): anti-HIV LNPs LPV/RTV/PMPA
# Protocol: The anti-HIV LNP formulations contain both unbound drug and drugs bound to lipid nanoparticles. […] Drugs were quantified by LC-MS/MS using acetonitrile precipitation. Encapsulation efficiency (EE) was calculated as follows: […]
# [2] = Intracellular drug concentration in inguinal lymph node mononuclear cells (LNMCs); conditions: for Kp at 24 h / concentration at 24 h: male, Macaca nemestrina, in vivo; for Kp at 24 h: LN/plasma ratio; for concentration at 24 h: sc, Mean drug concentration, Lymph node
# Protocol: Four macaques were divided into two treatment groups (two animals per group). […] Data were normalized to the anti-HIV LNP dose for comparative analysis.
# Plasma was removed, PBMCs were isolated by the density gradient method, and cells were aliquoted into pellets of approximately 2 million PBMCs each. An inguinal lymph node was surgically excised 24 h after drug administration (n=2 per treatment), LNMCs were isolated by passage through a 100-lm nylon cell strainer (Corning, Tewksbury, Mass.), and cells were aliquoted into pellets of approximately 1-2 million LNMCs each. All samples were stored at −80° C. prior to drug analysis.
# Plasma concentrations of all three drugs were analyzed simultaneously by liquid chromatography-tandem mass spectrometry using a recently published method. […] Antimicrob Agents Chemother 2014; 58(5):2675-2680, incorporated herein by reference in its entirety. PBMC and LNMC pellets were lysed using 200 μl water/methanol (1:1 v/v), sonicated for 10 min, and then extracted and analyzed using the same method as cited above. Intracellular concentrations were converted to ng/ml with the assumption that each cell has a volume of 4×10^−9 ml. Alberts B, Johnson A, Lewis J, et al. Molecular Biology of the Cell, 4 ed. Garland Science, New York, 2002, incorporated herein by reference in its entirety.
# [3] = pH dependent drug release from LPV/RTV/TFV lipid nanoparticles; type: physicochemical; conditions: 2 hrs
# Text: As described above, we established the pH-dependent association of various drugs to lipids at neutral pH and the consequent release of the drugs when pH is lowered. Also described above, this stable integration and pH-dependent release of drugs from the multiple drug lipid nanoparticles was consistent for both lipophilic and water soluble compounds. To confirm the pH dependent release of the individual drugs from the multiple drug combination lipid nanoparticles, LPV/RTV/PMPA(TFV) lipid nanoparticles, assembled as described above, were subjected to different pH environments, and the free drug component of the supernatant was assayed to determine the amount of release. […] When a lipid nanoparticle is localized in tissues and taken up by HIV-infected cells, the incorporated antiretroviral drugs are then released inside the cell organelles (such as endosome and lysosomes) when the pH is lowered.
# [4] = % Drug association to particles by assembly method; type: physicochemical
# Outline: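 Drugs and excipients (e.g., 9:1 DSPC:PEG-DSPE) dissolved in single-phase CHCl3:alcohol:water (65:35:4), dried under reduced pressure, heated above lipid phase transition (e.g., 50° C.). Hydrated with equilibrated buffered saline at that temperature for 3 hr, then size-reduced by shearing or pressurized filtration in liquid phase.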
# [5] = Sucrose gradient test of drug association; type: physicochemical; conditions: 5-20% sucrose gradient, 200,000 g, 4 hr, LPV/RTV/TFV LNPs, single miscible solvent method
# Protocol: The sucrose gradient test to determine this characteristic is described in Example 5. Briefly, the sucrose gradient test comprises subjecting the multi-drug lipid nanoparticle to a continuous 5%-20% sucrose gradient and applying a centrifugal force of 200,000 g for 4 hours. The unassociated small molecules separate and float to the less dense fractions, whereas the associated small molecule agents sediment with the stable lipid nanoparticles in the denser gradients. The relative amounts of the unassociated and associated small molecule reagents can be quantified and, thus, compared.
# The sucrose gradient test centrifugation test separates any unbound drugs from multi-drug lipid nanoparticles by sedimentation of lipid-drug particles through a sucrose gradient with increasing density to strip off unbound drugs. Under these conditions, all the free drugs in solution remained at (or floated to) the top of gradient where the sucrose density is low. Specifically, using a continuous gradient of 5-20% (with 65% cushion) sucrose, the lipid-drug particle mixture was subjected to centrifugal force at 200,000 g for 4 hr. Through this process, we were able to separate bound and unbound drug fractions. […] It is noted that the observed percentage of multi drug lipid nanoparticle association for the other two drugs (LPV and RTV) are consistent with data in Table 11.
# [6] = Combination 1, lipid:LPV:RTV:TFV 115:10:5:15, large scale
# [7] = Combination 2, lipid:ATZ:RTV:TFV 115:10:5:15, large scale
Compound,"% particle-bound [1, 6]","% particle-bound [1, 7]",Degree of incorporation (% total) ([1]; laboratory scale (0.1-0.4 ml)) [%],"Kp at 24 h ([2]; Free drug treatment, 24 h)",concentration at 24 h ([2]; Anti-HIV LNP treatment) [ng/mL],concentration at 24 h ([2]; Free drug treatment) [ng/mL],"% Drug released from anti-HIV nanoparticles ([3]; pH 4.0, 37° C.) [%]","% Drug released from anti-HIV nanoparticles ([3]; pH 5.5, 37° C.) [%]","% Drug released from anti-HIV nanoparticles ([3]; pH 6.5, 37° C.) [%]","% Drug released from anti-HIV nanoparticles ([3]; pH 7.4, 37° C.) [%]","% Drug Association to Particles, LNPs from mixture of dual solvent method [4]","% Drug Association to Particles, LNPs from single, miscible solvent method [4]",% association to lipid-drug particles (bound fraction) [5],other results
"CC(C)c1nc(CN(C)C(=O)N[C@H](C(=O)N[C@@H](Cc2ccccc2)C[C@H](O)[C@H](Cc2ccccc2)NC(=O)OCc2cncs2)C(C)C)cs1 [Ritonavir (RTV), Ritonavir]",(83.4 ± 1.4) %,(88.5 ± 3.1) %,74.2 ± 8.4,5.5,1640 ± 19,32.6 ± 32.6,94.9 ± 0.7,29.0 ± 11.6,3.2 ± 4.9,2 ± 1,80-100%,90-100%,76%,Degree of incorporation (% total) ([1]; clinical scale (15-40 ml)): 90.7 ± 7.4%
"C[C@H](Cn1cnc2c(N)ncnc21)OCP(=O)(O)O [Tenofovir (TFV), [(2R)-1-(6-aminopurin-9-yl)propan-2-yl]oxymethylphosphonic acid]",(9.9 ± 2.9) %,(7.9 ± 1.8) %,11.8 ± 5.1,284,190 ± 22.8,256 ± 31.5,28.7 ± 0.9,11.2 ± 1.5,15.9 ± 5.4,0 ± 2,7-30%,78-85%,around 75.5%,"% particle-bound ([1]; Combination 3, lipid:LPV:EFV:TFV 200:26.6:20:40, large scale): (7.9) %; stable lipid association ([1]; across drug combinations): 8-10%; Degree of incorporation (% total) ([1]; clinical scale (15-40 ml), listed as PMPA): 12%; Degree of incorporation (% total) ([1]; clinical scale (15-40 ml), listed as Tenofovir): 11.9 ± 3.0%; LNP/free ratio, mononuclear cells of inguinal nodes ([2]; 24 h): 0.7; Ratio comparison between treatments (LNP/free), Lymph node ([2]; 24 h): 0.7; LNP/free ratio, mononuclear cells of inguinal nodes ([2]; 24 h, listed as TFV): 0.7; Kp at 24 h ([2]; Anti-HIV LNP treatment, 24 h): 0.1; % association of hydrophilic drug in typical liposome ([4]; typical liposomes): 3-5%; % association to lipid-drug particles (bound fraction) ([5]; listed as Tenofovir (TFV or PMPA)): 75.5%"
